In patent US6552080B1, “Fungicidal compounds having a fluorovinyl-or fluoropropenyl-oxyphenyloxime moiety and process for the preparation thereof” (Korea Research Institute of Chemical Technology, priority 1999, dated 2003):
Like-named read-outs stand apart in the source and are kept apart here.

Columns and labels:
[1] = system: Erysiphae graminis; assay: Fungicidal activity against Barley Powdery Mildew (BPM) disease; assay type: in vivo; details: Barley Powdery Mildew
[2] = system: Rhizoctonia solani AG-1; assay: Fungicidal activity against Rice Sheath Blight (RSB) disease; details: Rice Sheath Blight
[3] = system: Puccinia recondita; assay: Fungicidal activity against Wheat Leaf Rust (WLR) disease; assay type: in vivo; details: Wheat Leaf Rust
[4] = system: Phytophthora infestans; assay type: in vivo; details: Tomato Late Blight
[5] = system: Pyricularia oryzae Carvara KA301; assay type: in vivo; details: Rice Blast
[6] = system: Botrytis cinerae; assay: Fungicidal activity against Cucumber Gray Mold Rot (CGM) disease; assay type: in vivo; details: Cucumber Gray Mold Rot

SMILES	BPM (Fungicidal Activities, C.V.) ([1]; concentration 2 ppm) [%]	BPM (Fungicidal Activities, C.V.) ([1]; concentration 10 ppm) [%]	BPM (Fungicidal Activities, C.V.) ([1]; concentration 50 ppm) [%]	RSB (Fungicidal Activities, C.V.) ([2]; concentration 2 ppm) [%]	RSB (Fungicidal Activities, C.V.) ([2]; concentration 10 ppm) [%]	RSB (Fungicidal Activities, C.V.) ([2]; concentration 50 ppm) [%]	WLR (Fungicidal Activities, C.V.) ([3]; concentration 2 ppm) [%]	WLR (Fungicidal Activities, C.V.) ([3]; concentration 10 ppm) [%]	WLR (Fungicidal Activities, C.V.) ([3]; concentration 50 ppm) [%]	TLB (Fungicidal Activities, C.V.) ([4]; concentration 2 ppm) [%]	TLB (Fungicidal Activities, C.V.) ([4]; concentration 10 ppm) [%]	TLB (Fungicidal Activities, C.V.) ([4]; concentration 50 ppm) [%]	RCV (Fungicidal Activities, C.V.) ([5]; concentration 2 ppm) [%]	RCV (Fungicidal Activities, C.V.) ([5]; concentration 10 ppm) [%]	RCV (Fungicidal Activities, C.V.) ([5]; concentration 50 ppm) [%]	CGM (Fungicidal Activities, C.V.) ([6]; concentration 2 ppm) [%]	CGM (Fungicidal Activities, C.V.) ([6]; concentration 10 ppm) [%]	CGM (Fungicidal Activities, C.V.) ([6]; concentration 50 ppm) [%]
CNC(=O)/C(=N/OC)c1ccccc1CON=C(C)c1cccc(OC(F)=Cc2ccccc2)c1 [Compound 77]	100	100	100	40	57	100	100	100	100	50	88	80	100	100	100	21	36	85
CNC(=O)C(=NOC)c1ccccc1CON=C(C)c1cccc(OC(F)=Cc2cccc(C)c2)c1 [Compound 78]	100	–	100	45	–	90	100	–	100	50	–	94	100	–	100	–	–	82
CCc1ccc(C=C(F)Oc2cccc(C(C)=NOCc3ccccc3C(=NOC)C(=O)NC)c2)cc1 [Compound 79]	100	–	100	35	–	65	98	–	100	43	–	82	99	–	100	–	–	80
CNC(=O)C(=NOC)c1ccccc1CON=C(C)c1cccc(OC(F)=Cc2cccc(OC)c2)c1 [Compound 80]	100	–	100	45	–	100	96	–	100	12	–	72	100	–	100	–	–	77
CCOc1ccc(C=C(F)Oc2cccc(C(C)=NOCc3ccccc3C(=NOC)C(=O)NC)c2)cc1 [Compound 81]	100	–	100	30	–	100	99	–	100	12	–	64	100	–	100	–	–	83
CNC(=O)C(=NOC)c1ccccc1CON=C(C)c1cccc(OC(F)=Cc2ccc(F)cc2)c1 [Compound 82]	100	–	100	55	–	85	100	–	100	85	–	84	100	–	96	–	–	82
COC=C(C(=O)OC)c1ccccc1CON=C(c1cccc(OC(F)=Cc2ccc(C)cc2)c1)C(F)(F)F [Compound 85]	–	92	99	–	–	40	–	93	96	–	–	0	–	16	93	–	–	7
COC=C(C(=O)OC)c1ccccc1CON=C(c1cccc(OC(F)=Cc2ccc(OC)cc2)c1)C(F)(F)F [Compound 89]	–	99	100	–	–	50	–	70	96	–	–	12	–	–	80	–	–	0
COC=C(C(=O)OC)c1ccccc1CON=C(c1cccc(OC(F)=Cc2cccc(F)c2)c1)C(F)(F)F [Compound 90]	–	97	99	–	–	35	–	–	86	–	–	27	–	–	76	–	–	9
COC=C(C(=O)OC)c1ccccc1CON=C(c1cccc(OC(F)=Cc2ccc3c(c2)OCO3)c1)C(F)(F)F [Compound 94]	100	100	100	–	–	60	93	96	100	–	–	68	99	100	100	–	–	54
CON=C(C(=O)OC)c1ccccc1CON=C(c1cccc(OC(F)=Cc2ccccc2)c1)C(F)(F)F [Compound 102]	97	100	100	–	–	50	94	96	99	–	–	0	71	86	99	–	–	23
COC=C(C(=O)OC)c1ccccc1CON=Cc1cccc(OC(F)=C(c2cccc(C)c2)C(F)(F)F)c1 [Compound 104]	80	99	100	–	–	45	66	93	97	–	–	0	25	75	96	–	–	0
COC=C(C(=O)OC)c1ccccc1CON=Cc1cccc(OC(F)=C(c2ccc(C)cc2)C(F)(F)F)c1 [Compound 105]	98	99	100	–	–	20	86	98	100	–	–	0	–	–	0	–	–	0
COC=C(C(=O)OC)c1ccccc1CON=Cc1cccc(OC(F)=C(c2ccc(OC)cc2)C(F)(F)F)c1 [Compound 111]	95	100	100	–	–	0	80	95	98	–	–	0	–	–	0	–	–	17
COC=C(C(=O)OC)c1ccccc1CON=Cc1cccc(OC(F)=C(c2ccc(F)cc2)C(F)(F)F)c1 [Compound 113]	86	96	100	–	–	20	86	98	100	–	–	21	–	–	0	–	–	0
COC=C(C(=O)OC)c1ccccc1CON=Cc1cccc(OC(F)=C(c2cccc(Cl)c2)C(F)(F)F)c1 [Compound 116]	33	96	100	–	–	15	53	96	96	–	–	14	–	–	0	–	–	0
COC=C(C(=O)OC)c1ccccc1CON=Cc1cccc(OC(F)=C(c2ccc(Br)cc2)C(F)(F)F)c1 [Compound 118]	88	96	100	–	–	30	91	98	100	–	–	0	–	–	33	–	–	36
